According to patent US20230027985A1, “SUBSTITUTED HYDANTOINAMIDES AS ADAMTS7 ANTAGONISTS” (Bayer Aktiengesellschaft, priority 2019, published 2023):

How the values were obtained:
[1] = target: T1, Purified recombinant ADAMTS-7 (rat prodomain/human catalytic domain, SEQ ID No. 01 or 02) (Homo sapiens, UniProt Q9UKP4); assay: Assay for ADAMTS-7 enzymatic activity (FRET substrate cleavage); format: biochemical; conditions: FRET substrate SEQ ID No. 11, 120 min at 32° C.; read-out: ADAMTS7-IC50
T1 construct: rat ADAMTS-7 signal peptide + prodomain (rat 1-217, Q1EHB3) (N); 2xStrep tag (C); 6xHis tag (C); made in house; host or cells: Expi293 cells
T1 sequence (Q9UKP4 237-537): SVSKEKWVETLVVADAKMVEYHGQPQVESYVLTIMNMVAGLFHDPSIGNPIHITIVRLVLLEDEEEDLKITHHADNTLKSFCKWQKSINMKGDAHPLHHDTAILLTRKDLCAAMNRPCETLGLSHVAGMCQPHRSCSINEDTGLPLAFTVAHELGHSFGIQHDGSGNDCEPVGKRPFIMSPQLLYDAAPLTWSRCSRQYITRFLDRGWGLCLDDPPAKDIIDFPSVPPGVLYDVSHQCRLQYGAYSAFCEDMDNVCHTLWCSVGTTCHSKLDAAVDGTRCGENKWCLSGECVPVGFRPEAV
Protocol: Purified recombinant ADAMTS-7 (as of SEQ ID No. 01 or SEQ ID No. 02) was diluted in reaction buffer (20 mM HEPES pH 8.0, 150 mM NaCl, 5 mM CaCl2, 0.004% Brij, 10 μM ZnCl2) fora concentration of approximately 20 nM. 25 μl of the solution were transferred into each well of a 384-well white microtiter plate (Greiner Bio-One 781075) and 1 μl test compound solution (modulator/inhibitor dissolved in DMSO, at the corresponding concentration) or pure DMSO as a control were added per well. […] Amino acids […] are derived from Thrombospondin-1 sequence (275-289). An additional carboxyl glutamic acid was added after the QXL520 quencher to increase substrate solubility. The microtiter plate was incubated for 120 min at the temperature of 32° C. The increase of fluorescence intensity was measured in appropriate fluorescence plate reader (e.g. TECAN Ultra) using excitation wavelength of 485 nm and emission wavelength of 520 nm. IC50 values were calculated from percentage of inhibition of ADAMTS-7 activity as a function of test compound concentration.

[2] = target: T2, ADAMTS4 (Homo sapiens, UniProt O75173); assay: Selectivity assay for ADAMTS-7 modulators (FRET), ADAMTS4; format: biochemical; conditions: 50 nM enzyme (R&D 4307-AD), 1 μM Dabcyl/Edans FRET substrate, 120 min at 32° C.
T2 construct: purchased R&D 4307-AD
T2 sequence (O75173 213-685 limits assumed): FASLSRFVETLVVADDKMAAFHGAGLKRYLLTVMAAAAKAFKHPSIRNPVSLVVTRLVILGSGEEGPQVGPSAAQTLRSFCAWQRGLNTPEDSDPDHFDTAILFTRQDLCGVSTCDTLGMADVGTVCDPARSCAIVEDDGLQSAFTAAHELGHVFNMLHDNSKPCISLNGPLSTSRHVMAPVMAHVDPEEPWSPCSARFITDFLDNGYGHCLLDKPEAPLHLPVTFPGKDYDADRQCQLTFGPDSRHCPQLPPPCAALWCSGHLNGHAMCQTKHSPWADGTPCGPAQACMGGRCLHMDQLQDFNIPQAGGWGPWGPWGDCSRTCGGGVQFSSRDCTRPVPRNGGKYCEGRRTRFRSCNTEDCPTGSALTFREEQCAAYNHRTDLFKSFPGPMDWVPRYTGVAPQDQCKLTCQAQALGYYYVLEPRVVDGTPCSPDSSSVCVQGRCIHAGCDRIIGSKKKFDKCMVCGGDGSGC
Protocol: The respective enzyme (see table 2 below) was diluted in reaction buffer (50 mM Tris, 2.5 μM ZnCl2, 0.05% BSA, 0.001% Brij, pH 7.5 for ADAM17; 50 mM Tris 7.5, 150 mM NaCl, 10 mM CaCl2, 0.05% Brij for all other enzymes) to the respective concentration and 25 μl were transferred into each well of a 384-well white microtiter plate (Greiner Bio One 781075). 1 μl test compound solution (dissolved in DMSO, at the corresponding concentration) or pure DMSO as a control was added per well. The enzymatic reaction was initiated by addition of 25 μl of the respective concentration of the respective FRET substrate (see table 2 below) in reaction buffer. The microtiter plate was incubated for 120 min at the temperature of 32° C. The increase of fluorescence intensity was measured in appropriate fluorescence plate reader (e.g. TECAN Ultra) using the respective wavelengths for excitation and emission. IC50 values were calculated from percentage of inhibition of enzyme activity as a function of test compound concentration.

Row | Structure (SMILES) | IC50 [1] | IC50 [2]
1 | Cc1scnc1C1(CNC(=O)c2cnn(-c3ccc(F)cc3)n2)NC(=O)NC1=O (racemic) [Example 100, rac-2-(4-fluorophenyl)-N-{[4-(5-methyl-1,3-thiazol-4-yl)-2,5-dioxoimidazolidin-4-yl]methyl}-2H-1,2,3-triazole-4-carboxamide] | 8 nM | 680 nM
2 | O=C1NC(=O)C(CNC(=O)c2cnn(-c3cccc(F)c3)n2)(c2nccs2)N1 (racemic) [Example 108, rac-N-{[2,5-dioxo-4-(1,3-thiazol-2-yl)imidazolidin-4-yl]methyl}-2-(3-fluorophenyl)-2H-1,2,3-triazole-4-carboxamide] | 12 nM | 600 nM
3 | O=C1NC(=O)C(CNC(=O)c2cnn(-c3ccc(Cl)c(F)c3)n2)(c2nccs2)N1 (racemic) [Example 109, rac-2-(4-chloro-3-fluorophenyl)-N-{[2,5-dioxo-4-(1,3-thiazol-2-yl)imidazolidin-4-yl]methyl}-2H-1,2,3-triazole-4-carboxamide] | 19 nM | 1100 nM
4 | O=C1NC(=O)C(CNC(=O)c2cnn(-c3ccc(F)c(Cl)c3)n2)(c2nccs2)N1 (racemic) [Example 111, rac-2-(3-chloro-4-fluorophenyl)-N-{[2,5-dioxo-4-(1,3-thiazol-2-yl)imidazolidin-4-yl]methyl}-2H-1,2,3-triazole-4-carboxamide] | 35 nM | 1200 nM
5 | O=C1NC(=O)C(CNC(=O)c2cnn(-c3ccc(F)cc3)n2)(c2nccs2)N1 (racemic) [Example 113, rac-N-{[2,5-dioxo-4-(1,3-thiazol-2-yl)imidazolidin-4-yl]methyl}-2-(4-fluorophenyl)-2H-1,2,3-triazole-4-carboxamide] | 39 nM | 2400 nM
6 | O=C1NC(=O)C(CNC(=O)c2cnn(-c3ccc(F)cc3F)n2)(c2nccs2)N1 (racemic) [Example 115, rac-2-(2,4-difluorophenyl)-N-{[2,5-dioxo-4-(1,3-thiazol-2-yl)imidazolidin-4-yl]methyl}-2H-1,2,3-triazole-4-carboxamide] | 87 nM | 6600 nM
7 | CC(C)C1(CNC(=O)c2cnn(-c3cccc(F)c3)n2)NC(=O)NC1=O (racemic) [Example 118, rac-2-(3-fluorophenyl)-N-[(4-isopropyl-2,5-dioxoimidazolidin-4-yl)methyl]-2H-1,2,3-triazole-4-carboxamide] | 46 nM | 4500 nM
8 | CC(C)C1(CNC(=O)c2cnn(-c3cccc(C#N)c3)n2)NC(=O)NC1=O (racemic) [Example 120, rac-2-(3-cyanophenyl)-N-[(4-isopropyl-2,5-dioxoimidazolidin-4-yl)methyl]-2H-1,2,3-triazole-4-carboxamide] | 170 nM | 6000 nM
9 | CC(C)C1(CNC(=O)c2cnn(-c3ccc(F)c(F)c3)n2)NC(=O)NC1=O (racemic) [Example 122, rac-2-(3,4-difluorophenyl)-N-[(4-isopropyl-2,5-dioxoimidazolidin-4-yl)methyl]-2H-1,2,3-triazole-4-carboxamide] | 11 nM | 2500 nM
10 | CC(C)C1(CNC(=O)c2cnn(-c3ccc(Cl)c(F)c3)n2)NC(=O)NC1=O (racemic) [Example 124, rac-2-(4-chloro-3-fluorophenyl)-N-[(4-isopropyl-2,5-dioxoimidazolidin-4-yl)methyl]-2H-1,2,3-triazole-4-carboxamide] | 13 nM | 2800 nM
11 | Cn1nccc1C1(CNC(=O)c2cnn(-c3ccc(F)cc3)n2)NC(=O)NC1=O (racemic) [Example 127, rac-2-(4-fluorophenyl)-N-{[4-(1-methyl-1H-pyrazol-5-yl)-2,5-dioxoimidazolidin-4-yl]methyl}-2H-1,2,3-triazole-4-carboxamide] | 10 nM | 2400 nM
12 | O=C1NC(=O)C(CNC(=O)c2cnn(-c3ccc(F)cc3)n2)(c2ccnn2C(F)F)N1 (racemic) [Example 128, rac-N-({4-[1-(difluoromethyl)-1H-pyrazol-5-yl]-2,5-dioxoimidazolidin-4-yl}methyl)-2-(4-fluorophenyl)-2H-1,2,3-triazole-4-carboxamide] | 29 nM | 2400 nM
13 | CCn1nccc1C1(CNC(=O)c2cnn(-c3ccc(F)cc3)n2)NC(=O)NC1=O (racemic) [Example 130, rac-N-{[4-(1-ethyl-1H-pyrazol-5-yl)-2,5-dioxoimidazolidin-4-yl]methyl}-2-(4-fluorophenyl)-2H-1,2,3-triazole-4-carboxamide] | 14 nM | 2800 nM
14 | Cc1ncsc1C1(CNC(=O)c2cnn(-c3ccc(F)cc3)n2)NC(=O)NC1=O (racemic) [Example 131, rac-2-(4-fluorophenyl)-N-{[4-(4-methyl-1,3-thiazol-5-yl)-2,5-dioxoimidazolidin-4-yl]methyl}-2H-1,2,3-triazole-4-carboxamide] | 37 nM | 2500 nM
15 | O=C1NC(=O)C(CNC(=O)c2cnn(-c3ccc(F)cc3)n2)(c2ccnn2CC(F)(F)F)N1 (racemic) [Example 133, rac-N-({2,5-dioxo-4-[1-(2,2,2-trifluoroethyl)-1H-pyrazol-5-yl]imidazolidin-4-yl}methyl)-2-(4-fluorophenyl)-2H-1,2,3-triazole-4-carboxamide] | 50 nM | 3200 nM
16 | O=C1NC(=O)C(CNC(=O)c2cnn(-c3ccc(F)cc3)n2)(c2ncsc2C(F)(F)F)N1 (racemic) [Example 135, rac-N-({2,5-dioxo-4-[5-(trifluoromethyl)-1,3-thiazol-4-yl]imidazolidin-4-yl}methyl)-2-(4-fluorophenyl)-2H-1,2,3-triazole-4-carboxamide] | 48 nM | 6600 nM
17 | O=C1NC(=O)C(CNC(=O)c2cnn(-c3ccc(F)cc3)n2)(c2ccccc2)N1 (racemic) [Example 139, rac-N-[(2,5-dioxo-4-phenylimidazolidin-4-yl)methyl]-2-(4-fluorophenyl)-2H-1,2,3-triazole-4-carboxamide] | 69 nM | > 50000 nM
18 | Cn1ccnc1C1(CNC(=O)c2cnn(-c3ccccc3)n2)NC(=O)NC1=O (racemic) [Example 140, rac-N-{[4-(1-methyl-1H-imidazol-2-yl)-2,5-dioxoimidazolidin-4-yl]methyl}-2-phenyl-2H-1,2,3-triazole-4-carboxamide] | 4 nM | 360 nM
19 | Cn1ccnc1C1(CNC(=O)c2cnn(-c3ccc(F)cc3)n2)NC(=O)NC1=O (racemic) [Example 141, rac-2-(4-fluorophenyl)-N-{[4-(1-methyl-1H-imidazol-2-yl)-2,5-dioxoimidazolidin-4-yl]methyl}-2H-1,2,3-triazole-4-carboxamide] | 4 nM | 320 nM
20 | Cn1ccnc1C1(CNC(=O)c2cnn(-c3cc(F)c(F)c(F)c3)n2)NC(=O)NC1=O (racemic) [Example 143, rac-N-{[4-(1-methyl-1H-imidazol-2-yl)-2,5-dioxoimidazolidin-4-yl]methyl}-2-(3,4,5-trifluorophenyl)-2H-1,2,3-triazole-4-carboxamide] | 5 nM | 200 nM
